Test results: US20240217946A1, “ANTIDEPRESSANT AND ANXIOLYTIC SUBSTITUTED CINNAMAMIDE COMPOUND” (TASLY PHARMACEUTICAL GROUP CO., LTD., priority 2021, published 2024)
Entries after “also recorded” stand apart in the source; their conditions may differ.

Legend:
mice [1] = settings: 10 mg/kg for 7 days; cited from earlier work
mice [2] = settings: Patent C; cited from earlier work
mice [3] = settings: 10 mg/kg continuously for 7 days; cited from earlier work
C57 BL/6J male mice = test: Forced swimming experiment in mice; format: in vivo
Text: 1) Forced Swimming Experiment: Also Known as Despair Experiment, an Experiment Usually Used to Test Depression-Like Behavior of Mice
• Animal: C57 BL/6J male mice (18-20 g)
Intraperitoneal injection (i.p)

mTOR signaling pathway = test: Western blot of prefrontal proteins after single administration; format: in vivo, mice; settings: 30 mg/kg
Protocol: 3) Western Blot: For Detecting Effect of Compound M2 on a Change in mPFC Protein Content • Animals: C57 BL/6J male mice (18-20 g), divided into four groups, i.e. the control group, fluoxetine group, compound M2 (30 mg/kg) group, and esketamine group. • Primary antibodies for experimental use
0.5 h/24 h after administration of C57 mice, brain tissue was sampled from the prefrontal brain area. After tissue samples were lysed and homogenized, quantification of proteins was performed using the BCA method, and changes in protein content in the prefrontal brain area 0.5 h/24 h after intraperitoneal administration of compound M2 were detected by steps of SDS-PAGE gel preparation, sample loading and electrophoresis, membrane transfer, sealing, primary antibody incubation, secondary antibody incubation, protein detection (development and fixation), etc.

[4] = test system: pyramidal neurons in prefrontal PrL brain area; test: Brain slice electrophysiology, sEPSC of mPFC pyramidal neurons; format: cell-based, mice; settings: 10 nM, 10 μM, 150 μM; for sEPSC distribution frequency: concentration-dependent, significant at 150 μM
Text: 2) Brain Slice Electrophysiological Experiment: For Detecting Effect of Compound M2 on mPFC Excitatory Synaptic Transmission • Animal: neonatal mice C57 BL/6J (20-30 days). • Instrument: vibratome (Leica), brain slice electrophysiological system (Axon). • Brain slice electrophysiological experiment method • SEPSC experiment method: Neonatal C57 mice were anesthetized and then perfused with artificial cerebrospinal fluid (ACSF). After decapitation, brain tissue was taken quickly and sliced by vibratome, with a thickness of a brain slice being 300 μm. After the brain slices were incubated at 28 °C for 1 h, whole-cell recordings of mPFC pyramidal neurons were made using a voltage clamp (−70 mV) through a brain slice electrophysiological system. The baseline recording time was 6 min, and then a drug to be tested was added through a perfusion system (the drug was dissolved using ACSF), and the recording time after adding the drug was 6-10 min. Recorded data was analyzed using Minianalysis software, and effects of the drug to be tested on sEPSC frequency and amplitude of medial prefrontal pyramidal neurons in C57 mice were compared.
All data analysis was done using spss data processing software, and data was expressed by Mean±s.e.m. One-way ANOVA was used to analyze the effect of compound M2 and the effect of compound M2 under the action of dopamine receptor antagonists on sEPSC current: and paired t test was used to analyze sEPSC experimental results. * was marked when p<0.05.
During the experiment, 10 μM Bicuculine was added to the solution to block GABA receptor, so as to record sEPSC of pyramidal neurons. The experiment investigated effects of different concentrations of compound M2 on spontaneous excitatory postsynaptic […] (sEPSC) of pyramidal neurons in prefrontal PrL brain area, as shown in FIG. 2.

Row | SMILES | immobility time of tail suspension in mice (mice [1]) | effective anxiolytic dosage in mice elevated plus maze experiment (mice [2]) [mg/kg] | reserpine-induced body temperature decrease and akinesia in mice, degree of eye closure (mice [3]) | antidepressant-like effect (C57 BL/6J male mice; 24 h after a single i.p. administration, fluoxetine 10 mg/kg, esketamine 10 mg/kg, M2 3-30 mg/kg) | immobility time of mice in forced swimming (C57 BL/6J male mice; 24 h after single i.p. administration, dosage effect, significant at 30 mg/kg, 30 mg/kg) | medial prefrontal p-TrkB content (mTOR signaling pathway; 0.5 h after administration) | medial prefrontal p-mTOR content (mTOR signaling pathway; 0.5 h after administration) | total content (mTOR, TrkB) (mTOR signaling pathway; 0.5 h after administration) | content of medial prefrontal synaptogenesis-related protein PSD95 (mTOR signaling pathway; 24 h after single administration) | sEPSC distribution amplitude [4] | sEPSC distribution frequency [4] | sEPSC distribution frequency ([4]; listed as compound M2) | sEPSC distribution amplitude ([4]; listed as compound M2)
1 | CC(C)CNC(=O)/C=C/c1cc2c(c(C(F)(F)F)c1)OCO2 [Compound I-5] | significantly shorten the immobility time | 10 | significantly antagonizing | – | – | – | – | – | – | – | – | – | –
2 | NC(=O)/C=C/c1cc2c(c(C(F)(F)F)c1)OCO2 [Compound M2] | – | – | – | had antidepressant-like effect | reduce the immobility time; also recorded: significantly reduced | increased | increased | remaining unchanged | significantly increased | did not have significant effect | increased | significantly enhance | does not have a significant effect
